23 compounds from the NIST ThermoML archive (doi:10.1016/j.jct.2010.02.006) can be followed below.

This series in a line: activity coefficient (dimensionless); of the first substance listed, at infinite dilution; xn = mol fraction of the nth substance listed. Particulars: 101.3 kPa, Liquid, Chromatography, x1 = 0.

SMILES strings stand for the structures. ± gives the expanded uncertainty stated by the source.

Take `C=CCCCCCC` [oct-1-ene] + CCn1cc[n+](C)c1.N#C[B-](C#N)(C#N)C#N: the activity coefficient runs as follows: (303.5 K) 30.1 ± 2.6; (313.2 K) 26.8 ± 2.3; (323.3 K) 24 ± 2.1; (333.1 K) 21.5 ± 1.9; (343.1 K) 19 ± 1.6.

Take `CCO` [ethanol] + CCn1cc[n+](C)c1.N#C[B-](C#N)(C#N)C#N: the activity coefficient reads like this: (303.5 K) 1.64 ± 0.14; (313.3 K) 1.5 ± 0.13; (323.3 K) 1.37 ± 0.12; (333.1 K) 1.27 ± 0.11; (343.1 K) 1.16 ± 0.1.

Regarding `C=CCCCC` [hex-1-ene] + CCn1cc[n+](C)c1.N#C[B-](C#N)(C#N)C#N, the activity coefficient (303.5 K) was determined as 11.3 ± 0.97; the activity coefficient (313.2 K) came out at 9.74 ± 0.84; the activity coefficient (323.3 K) came out at 8.39 ± 0.72; the activity coefficient (333.1 K) is 7.35 ± 0.63; the activity coefficient (343.1 K) stood at 6.27 ± 0.54.

Consider `CO` [methanol] + CCn1cc[n+](C)c1.N#C[B-](C#N)(C#N)C#N, for which the activity coefficient (303.5 K) is 1.13 ± 0.09; the activity coefficient (313.3 K) came to 1.05 ± 0.09; the activity coefficient (323.3 K) was determined as 0.97 ± 0.08; the activity coefficient (333.1 K) turned out to be 0.91 ± 0.08; the activity coefficient (343.1 K) stood at 0.85 ± 0.07.

Turning to `CCCO` [propan-1-ol] + CCn1cc[n+](C)c1.N#C[B-](C#N)(C#N)C#N, the activity coefficient (303.5 K) amounted to 2.12 ± 0.18; the activity coefficient (313.3 K) turned out to be 1.92 ± 0.17; the activity coefficient (323.3 K) turned out to be 1.74 ± 0.15; the activity coefficient (333.1 K) turned out to be 1.6 ± 0.14; the activity coefficient (343.1 K) came to 1.46 ± 0.12.

Turning to `Cc1ccccc1C` [1,2-dimethylbenzene] + CCn1cc[n+](C)c1.N#C[B-](C#N)(C#N)C#N, the activity coefficient runs as follows: (303.6 K) 2.49 ± 0.21; (313.3 K) 2.53 ± 0.22; (323.2 K) 2.58 ± 0.22; (333.2 K) 2.56 ± 0.22; (343.1 K) 2.54 ± 0.22.

On to `Cc1ccc(C)cc1` [1,4-dimethylbenzene] + CCn1cc[n+](C)c1.N#C[B-](C#N)(C#N)C#N, for which the activity coefficient by setting is: (303.7 K) 2.78 ± 0.24; (313.2 K) 2.85 ± 0.25; (323.2 K) 2.87 ± 0.25; (333.3 K) 2.85 ± 0.25; (343.2 K) 2.84 ± 0.24.

On to `C#CCCCCCC` [1-octyne] + CCn1cc[n+](C)c1.N#C[B-](C#N)(C#N)C#N, for which the activity coefficient by setting is: (303.5 K) 9.64 ± 0.83; (313.3 K) 9.42 ± 0.81; (323.3 K) 9.11 ± 0.79; (333.1 K) 8.84 ± 0.76; (342.8 K) 8.58 ± 0.74.

In the case of `CCc1ccccc1` [ethylbenzene] + CCn1cc[n+](C)c1.N#C[B-](C#N)(C#N)C#N, the activity coefficient is, setting by setting: (303.6 K) 3 ± 0.26; (313.2 K) 3 ± 0.26; (323.1 K) 3.05 ± 0.26; (333.2 K) 2.97 ± 0.26; (343.3 K) 2.92 ± 0.25.

On to `Cc1ccccc1` [toluene] + CCn1cc[n+](C)c1.N#C[B-](C#N)(C#N)C#N, for which the activity coefficient (303.6 K) was 1.9 ± 0.16; the activity coefficient (313.2 K) stood at 1.92 ± 0.16; the activity coefficient (323.1 K) amounted to 1.98 ± 0.17; the activity coefficient (333.2 K) is 1.94 ± 0.17; the activity coefficient (343.3 K) was 1.92 ± 0.16.

As to `Cc1cccc(C)c1` [1,3-dimethylbenzene] + CCn1cc[n+](C)c1.N#C[B-](C#N)(C#N)C#N, the activity coefficient (303.6 K) is 2.92 ± 0.25; the activity coefficient (313.2 K) was found to be 2.99 ± 0.26; the activity coefficient (323.2 K) is 3.03 ± 0.26; the activity coefficient (333.1 K) was 3.01 ± 0.26; the activity coefficient (343.1 K) came out at 2.99 ± 0.26.

On to `C#CCCCC` [1-hexyne] + CCn1cc[n+](C)c1.N#C[B-](C#N)(C#N)C#N, for which the activity coefficient is, setting by setting: (303.5 K) 4.18 ± 0.36; (313.3 K) 4.04 ± 0.35; (323.3 K) 3.92 ± 0.34; (333.1 K) 3.77 ± 0.33; (343.1 K) 3.58 ± 0.31.

Turning to `C#CCCC` [1-pentyne] + CCn1cc[n+](C)c1.N#C[B-](C#N)(C#N)C#N, the activity coefficient was determined as 2.72 ± 0.23 (303.5 K); 2.61 ± 0.23 (313.3 K); 2.5 ± 0.22 (323.3 K); 2.38 ± 0.21 (333.1 K); 2.29 ± 0.2 (343.1 K).

On to `CCCCC` [pentane] + CCn1cc[n+](C)c1.N#C[B-](C#N)(C#N)C#N, for which the activity coefficient was 10.3 ± 0.89 (302.8 K); 8.21 ± 0.71 (313.4 K); 7.05 ± 0.61 (323.1 K); 5.92 ± 0.51 (332.8 K); 4.88 ± 0.42 (343.4 K).

For `CCCCCC` [hexane] + CCn1cc[n+](C)c1.N#C[B-](C#N)(C#N)C#N, the activity coefficient was 21 ± 1.8 (302.8 K); 17.4 ± 1.5 (313.4 K); 15.1 ± 1.3 (323.1 K); 12.5 ± 1.1 (332.8 K); 10.3 ± 0.89 (343.4 K).

Take `C#CCCCCC` [1-heptyne] + CCn1cc[n+](C)c1.N#C[B-](C#N)(C#N)C#N: the activity coefficient was 6.33 ± 0.55 (303.5 K); 6.15 ± 0.53 (313.3 K); 5.97 ± 0.52 (323.3 K); 5.78 ± 0.5 (333.1 K); 5.59 ± 0.48 (343.1 K).

Take `C=CCCCCCCCC` [1-decene] + CCn1cc[n+](C)c1.N#C[B-](C#N)(C#N)C#N: the activity coefficient runs as follows: (303.5 K) 60.5 ± 5.2; (313.2 K) 56 ± 4.8; (323.3 K) 51.5 ± 4.5; (333.1 K) 47.8 ± 4.1; (343.1 K) 43.4 ± 3.8.

For `c1ccccc1` [benzene] + CCn1cc[n+](C)c1.N#C[B-](C#N)(C#N)C#N, the activity coefficient stood at 1.31 ± 0.11 (303.6 K); 1.31 ± 0.11 (313.3 K); 1.34 ± 0.11 (323.2 K); 1.31 ± 0.11 (333.3 K); 1.3 ± 0.11 (343.2 K).

For the compound `CCCCCCC` [heptane] + CCn1cc[n+](C)c1.N#C[B-](C#N)(C#N)C#N, the activity coefficient (302.8 K) came out at 37.6 ± 3.3; the activity coefficient (313.4 K) was 32.2 ± 2.8; the activity coefficient (323.1 K) amounted to 28.1 ± 2.4; the activity coefficient (332.8 K) came to 23.8 ± 2.1; the activity coefficient (343.4 K) came out at 19.9 ± 1.7.

`CC1CCCCC1` [methylcyclohexane] + CCn1cc[n+](C)c1.N#C[B-](C#N)(C#N)C#N: the activity coefficient reads like this: (302.8 K) 20.7 ± 1.8; (313.4 K) 18.9 ± 1.6; (323.1 K) 16.9 ± 1.5; (332.8 K) 15.2 ± 1.3; (343.4 K) 13.3 ± 1.1.

Turning to `CCCCCCCCC` [nonane] + CCn1cc[n+](C)c1.N#C[B-](C#N)(C#N)C#N, the activity coefficient was found to be 85 ± 7.4 (302.8 K); 78.1 ± 6.8 (313.4 K); 70.8 ± 6.1 (323.1 K); 63.5 ± 5.5 (332.8 K); 55.3 ± 4.8 (343.4 K).

As to `CCCCCCCC` [octane] + CCn1cc[n+](C)c1.N#C[B-](C#N)(C#N)C#N, the activity coefficient runs as follows: (302.8 K) 58.9 ± 5.1; (313.4 K) 52.5 ± 4.5; (323.1 K) 46.7 ± 4; (332.8 K) 40.7 ± 3.5; (343.4 K) 34.9 ± 3.

Regarding `C1CCCCC1` [cyclohexane] + CCn1cc[n+](C)c1.N#C[B-](C#N)(C#N)C#N, the activity coefficient (302.8 K) was found to be 13.8 ± 1.2; the activity coefficient (313.4 K) turned out to be 12.4 ± 1.1; the activity coefficient (323.1 K) was determined as 11.2 ± 0.97; the activity coefficient (332.8 K) came out at 9.85 ± 0.85; the activity coefficient (343.4 K) was determined as 8.64 ± 0.75.
